Data taken from patent publication US20240368181A1, “QUINOXALINE DERIVATIVES AND USES THEREOF” (Black Diamond Therapeutics, Inc., priority 2021, published 2024).

Tests used:
Format in all cases: cell-based
[1] = system: SNU-16 (FGFR2-amplification) cells; assay: cell proliferation assay (CellTiterGlo), SNU-16 cells; conditions: Homo sapiens, 72 hours
In short: (§1)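 Cells were incubated with vehicle (DMSO) or compound over a range of concentrations. Growth inhibition was read by CellTiterGlo luminescence of intracellular ATP. IC50 was derived after normalizing to vehicle-treated cells as viable.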

[2] = system: UM-UC-14 (FGFR3-S249C) cells; assay: cell proliferation assay (CellTiterGlo), UM-UC-14 cells; conditions: UMUC14, 72 h
In short: as §1

[3] = system: DMS-114 (FGFR1 overexpression) cells; assay: cell proliferation assay (CellTiterGlo), DMS-114 cells; conditions: Homo sapiens, DMS-114, 72 h
In short: as §1

[4] = system: RT-112 (FGFR3-Tacc3 fusion) cells; assay: cell proliferation assay (CellTiterGlo), RT-112 cells; conditions: Homo sapiens, RT-112, RT112 cells, 72 hours
In short: as §1

| Compound | IC50 [1] | IC50 [2] | IC50 [3] | IC50 [4] |
| --- | --- | --- | --- | --- |
| Cc1nc2ccc(Oc3ccc4ncc(-c5cnn(C(=O)OC(C)C)c5)nc4c3Cl)c(F)c2[nH]1 [Compound 141] | 20 to 100 nM | 100 to 400 nM | ≥ 400 nM | 100 to 400 nM |
| Cc1nc2ccc(Oc3ccc4ncc(-c5cnn(CC6CCC(S(C)(=O)=O)CC6)c5)nc4c3Cl)cc2[nH]1 (stereo not drawn) [Compound 366] | 20 to 100 nM | 20 to 100 nM | ≥ 400 nM | 20 to 100 nM |
| Cc1nc2ccc(Oc3ccc4ncc(-c5cnn(CCC6CCN(CC(F)(F)F)CC6)c5)nc4c3Cl)cc2[nH]1 [Compound 296] | 20 to 100 nM | 20 to 100 nM | ≥ 400 nM | 20 to 100 nM |
| Cc1nc2ccc(Oc3ccc4ncc(-c5cnn(CC6CCN(C(N)=O)CC6)c5)nc4c3Cl)cc2[nH]1 [Compound 354] | 20 to 100 nM | 20 to 100 nM | 100 to 400 nM | < 20 nM |
| Cc1nc2ccc(Oc3ccc4ncc(-c5cnn(C6CCNCC6)c5C)nc4c3Cl)cc2[nH]1 [Compound 263] | 100 to 400 nM | 100 to 400 nM | ≥ 400 nM | 100 to 400 nM |
| Cc1nc2ccc(Oc3ccc4ncc(-c5cnn(CC6CC(F)(F)C6)c5)nc4c3C3=CCOCC3)cc2[nH]1 [Compound 100] | 20 to 100 nM | 20 to 100 nM | 100 to 400 nM | < 20 nM |
| Cc1nc2ccc(Oc3ccc4ncc(-c5cnn(CC6CCN(C)CC6(F)F)c5)nc4c3Cl)cc2[nH]1 (stereo not drawn) [Compound 380] | 20 to 100 nM | 20 to 100 nM | ≥ 400 nM | < 20 nM |
| Cc1nc2ccc(Oc3ccc4ncc(-c5cnn(C6(CCO)CCNCC6)c5)nc4c3Cl)cc2[nH]1 [Compound 318] | ≥ 400 nM | ≥ 400 nM | ≥ 400 nM | ≥ 400 nM |
| Cc1nc2ccc(Oc3ccc4ncc(-c5cnn(CC(=O)N6CCS(=O)(=O)CC6)c5)nc4c3Cl)cc2[nH]1 [Compound 270] | 100 to 400 nM | ≥ 400 nM | ≥ 400 nM | 20 to 100 nM |
| Cc1nc2ccc(Oc3ccc4ncc(-c5cnn(CC(=O)N6CCC(F)(F)C6)c5)nc4c3Cl)cc2[nH]1 [Compound 287] | 20 to 100 nM | 20 to 100 nM | ≥ 400 nM | 20 to 100 nM |
| Cc1nc2ccc(Oc3ccc4ncc(-c5cnn(Cc6nnc(C)o6)c5)nc4c3Cl)cc2[nH]1 [Compound 111] | 20 to 100 nM | 20 to 100 nM | ≥ 400 nM | 20 to 100 nM |
| Cc1nc2ccc(Oc3ccc4ncc(-c5cnn(C6CCNC7(CC7)C6)c5)nc4c3Cl)c(F)c2[nH]1 (stereo not drawn) [Compound 139] | < 20 nM | 20 to 100 nM | 20 to 100 nM | < 20 nM |
| Cc1nc2ccc(Oc3ccc4ncc(-c5cnn(CC(C)(C)C(N)=O)c5)nc4c3Cl)cc2[nH]1 [Compound 274] | 20 to 100 nM | 20 to 100 nM | ≥ 400 nM | 20 to 100 nM |
| Cc1nc2cc(Oc3ccc4ncc(-c5cnn(CC6(O)CCNCC6)c5)nc4c3Cl)ccc2[nH]1 [Compound 349] | ≥ 400 nM | ≥ 400 nM | ≥ 400 nM | ≥ 400 nM |
| Cc1nc2ccc(Oc3ccc4ncc(-c5cnn(CC6CC7CC6CN7CC(N)=O)c5)nc4c3Cl)cc2[nH]1 (stereo not drawn) [Compound 329] | < 20 nM | < 20 nM | 100 to 400 nM | < 20 nM |
| Cc1nc2ccc(Oc3ccc4ncc(-c5cnn(C6CC7COCC(C6)N7)c5)nc4c3Cl)cc2[nH]1 (stereo not drawn) [Compound 187] | 20 to 100 nM | 20 to 100 nM | ≥ 400 nM | 20 to 100 nM |
| Cc1nc2ccc(Oc3ccc4ncc(-c5cnn(CC6CCC(F)(F)CC6)c5)nc4c3Cl)c(F)c2[nH]1 [Compound 152] | 20 to 100 nM | 20 to 100 nM | 100 to 400 nM | 20 to 100 nM |
| Cc1nc2ccc(Oc3ccc4ncc(-c5cnn(CC6(O)CC6)c5)nc4c3N3CCOCC3)cc2[nH]1 [Compound 75] | 20 to 100 nM | 100 to 400 nM | ≥ 400 nM | 100 to 400 nM |
| Cc1nc2ccc(Oc3ccc4ncc(-c5cnn(CC(C)(C)O)c5)nc4c3Cl)c(F)c2[nH]1 [Compound 131] | < 20 nM | < 20 nM | 100 to 400 nM | < 20 nM |
| CO[C@H]1CC[C@@H](Cn2cc(-c3cnc4ccc(Oc5ccc6nc(C)[nH]c6c5)c(Cl)c4n3)cn2)CC1 [Compound 336] | 20 to 100 nM | 20 to 100 nM | ≥ 400 nM | 20 to 100 nM |
| Cc1nc2ccc(Oc3ccc4ncc(-c5cnn(C6CCNCC6)c5)nc4c3C3CC3)cc2[nH]1 [Compound 289] | 20 to 100 nM | 20 to 100 nM | 100 to 400 nM | 20 to 100 nM |
| Cc1nc2ccc(Oc3ccc4ncc(-c5cnn(C(OCc6ccccc6)C6CC6)c5)nc4c3Cl)cc2[nH]1 (stereo not drawn) [Compound 222] | ≥ 400 nM | ≥ 400 nM | ≥ 400 nM | ≥ 400 nM |

Further lines, with some results ahead:

| IC50 [1] | Compound | IC50 [2] | IC50 [3] | IC50 [4] |
| --- | --- | --- | --- | --- |
| 20 to 100 nM | Cc1nc2ccc(Oc3ccc4ncc(-c5cnn(CCN6CC(F)(F)C6)c5)nc4c3Cl)cc2[nH]1 [Compound 251] | 20 to 100 nM | ≥ 400 nM | 20 to 100 nM |
| 100 to 400 nM | C=C1COC(Cn2cc(-c3cnc4ccc(Oc5ccc6nc(C)[nH]c6c5)c(Cl)c4n3)cn2)OC1 [Compound 298] | 20 to 100 nM | ≥ 400 nM | 20 to 100 nM |
| 100 to 400 nM | Cc1nc2ccc(Oc3ccc4ncc(-c5cnn(CC6(F)CC6)c5)nc4c3Cl)cc2[nH]1 [Compound 253] | 100 to 400 nM | ≥ 400 nM | 100 to 400 nM |
| < 20 nM | Cc1nc2ccc(Oc3ccc4ncc(-c5cnn(C[C@H]6CCS(=O)(=O)C6)c5)nc4c3Cl)cc2[nH]1 [Compound 311] | 20 to 100 nM | 100 to 400 nM | < 20 nM |
| 20 to 100 nM | Cc1nc2ccc(Oc3ccc4ncc(-c5cnn(C6CN(CC(=O)N7CCC7)C6)c5)nc4c3Cl)cc2[nH]1 [Compound 236] | 20 to 100 nM | ≥ 400 nM | 20 to 100 nM |
| 20 to 100 nM | COC1CC(Cn2cc(-c3cnc4ccc(Oc5ccc6nc(C)[nH]c6c5)c(Cl)c4n3)cn2)C1 (stereo not drawn) [Compound 281] | 20 to 100 nM | ≥ 400 nM | 20 to 100 nM |
| 20 to 100 nM | C=CCn1cc(-c2cnc3ccc(Oc4ccc5nc(C)[nH]c5c4)c(Cl)c3n2)cn1 [Compound 347] | 100 to 400 nM | ≥ 400 nM | 20 to 100 nM |
| 20 to 100 nM | Cc1nc2ccc(Oc3ccc4ncc(-c5cnn(C6CC7(C6)OCCO7)c5)nc4c3Cl)cc2[nH]1 [Compound 346] | 20 to 100 nM | ≥ 400 nM | 20 to 100 nM |
| 20 to 100 nM | Cc1nc2ccc(Oc3ccc4ncc(-c5cnn(C6CN(CC#N)C6)c5)nc4c3Cl)cc2[nH]1 [Compound 254] | 20 to 100 nM | ≥ 400 nM | 20 to 100 nM |
| 20 to 100 nM | Cc1nc2ccc(Oc3ccc4ncc(-c5cnn(CC6COCCN6)c5)nc4c3Cl)cc2[nH]1 (stereo not drawn) [Compound 246] | 20 to 100 nM | ≥ 400 nM | 20 to 100 nM |
| < 20 nM | Cc1nc2ccc(Oc3ccc4ncc(-c5cnn(CC6CCC(O)CC6)c5)nc4c3Cl)cc2[nH]1 (stereo not drawn) [Compound 339] | < 20 nM | 100 to 400 nM | < 20 nM |
| 20 to 100 nM | Cc1nc2ccc(Oc3ccc4ncc(-c5cnn(CC(C)(C)O)c5)nc4c3Cl)cc2[nH]1 [Compound 280] | 20 to 100 nM | ≥ 400 nM | 20 to 100 nM |
| 20 to 100 nM | Cc1nc2ccc(Oc3ccc4ncc(-c5cnn(C6CN(C7CN(C)C7)C6)c5)nc4c3Cl)cc2[nH]1 [Compound 230] | 20 to 100 nM | ≥ 400 nM | 20 to 100 nM |
| < 20 nM | Cc1nc2ccc(Oc3ccc4ncc(-c5cnn(C6CC7CC6CN7C6COC6)c5)nc4c3Cl)cc2[nH]1 (stereo not drawn) [Compound 331] | 20 to 100 nM | ≥ 400 nM | < 20 nM |
| 20 to 100 nM | Cc1nc2ccc(Oc3ccc4ncc(-c5cnn(C6CC(N7CC(F)(F)C7)C6)c5)nc4c3Cl)cc2[nH]1 (stereo not drawn) [Compound 265] | 20 to 100 nM | 100 to 400 nM | 20 to 100 nM |
| < 20 nM | Cc1nc2ccc(Oc3ccc4ncc(-c5cnn(C6CCN(CCO)CC6)c5)nc4c3Cl)cc2[nH]1 [Compound 301] | 20 to 100 nM | ≥ 400 nM | < 20 nM |
| 20 to 100 nM | Cc1nc2ccc(Oc3ccc4ncc(-c5cnn(C6CC(=O)C6)c5)nc4c3Cl)cc2[nH]1 [Compound 242] | 20 to 100 nM | ≥ 400 nM | 20 to 100 nM |
| 20 to 100 nM | Cc1nc2ccc(Oc3ccc4ncc(-c5cnn(C[C@]67C[C@H](CO6)C7)c5)nc4c3Cl)cc2[nH]1 [Compound 337] | 20 to 100 nM | ≥ 400 nM | 20 to 100 nM |
| 100 to 400 nM | Cc1nc2ccc(Oc3ccc4ncc(-c5cnn(C6CN(CC(=O)N7CC(F)(F)C7)C6)c5)nc4c3Cl)cc2[nH]1 [Compound 226] | 20 to 100 nM | ≥ 400 nM | 20 to 100 nM |
| 20 to 100 nM | Cc1nc2ccc(Oc3ccc4ncc(-c5cnn(C6CCN(CC(F)(F)F)CC6)c5)nc4c3Cl)cc2[nH]1 [Compound 303] | 20 to 100 nM | ≥ 400 nM | 20 to 100 nM |
| 20 to 100 nM | Cc1nc2ccc(Oc3ccc4ncc(-c5cnn(C6CC7CC6CN7C(C)C)c5)nc4c3Cl)cc2[nH]1 (stereo not drawn) [Compound 342] | 20 to 100 nM | ≥ 400 nM | 20 to 100 nM |
| 20 to 100 nM | Cc1nc2ccc(Oc3ccc4ncc(-c5cnn(CCN6CCCC6)c5)nc4c3Cl)cc2[nH]1 [Compound 381] | 20 to 100 nM | ≥ 400 nM | 20 to 100 nM |
| 20 to 100 nM | Cc1nc2ccc(Oc3ccc4ncc(-c5cnn(C(C)(C)CO)c5)nc4c3Cl)cc2[nH]1 [Compound 359] | 20 to 100 nM | ≥ 400 nM | 20 to 100 nM |
